Data published in patent EP0032748B1, “Thiophene derivatives” (UBE INDUSTRIES, LTD., priority 1980, dated 1981).
Like-named read-outs stand apart in the source and are kept apart here.

Assays:
[1] = test system: paddy rice (variety: Asahi)
[2] = test system: rice brown spot fungus (Cochliobolus miyabeanus); experiment: Test Example 2: control effect on paddy rice brown spot (spray on potted seedlings); details: Table 3, spray liquid 500 ppm, inoculation one day after spraying, lesions per leaf 5 days after inoculation
[3] = test system: cucumber downy mildew fungus (Pseudoperonospora cubensis); format: in vivo; details: for Control value: Table 7, spray liquid 500 ppm, percent lesion area 5 days after inoculation
[4] = test system: cucumber (variety: Sagami Hanjiro)
[5] = test system: hariot (variety: Taisho Kintoki)
[6] = test system: haricot sclerotinia rot (Sclerotinia sclerotiorum); experiment: Test Example 5: control effect on haricot sclerotinia rot (spray, detached leaflets); details: Table 6, spray liquid 200 ppm, lesion diameter 3 days after inoculation
Method: On the following day, the first trifoliate leaf was cut off and the each leaflet of trifoliate leaf were placed in a 15 cm petri dish kept under moist conditions by placing a wet filter paper thereon and were inoculated on the center portion of each leaflet with a fungus-containing agar segment obtained by perforating by means of a cork borer of 8 mm in diameter an edge of a colony of a haricot sclerotinia rot (Sclerotinia sclerotiorum) cultured previously at 20°C. for 2 days in PSA medium. Three days after inoculation, the lesion diameter formed was measured by means of slide calipers and the control value (%) was obtained according to the following equation.

[7] = test system: pear alternaria leaf spot fungus (Alternaria kikuchiana); format: in vivo; details: pear black spot; concentration of spray liquid 500 ppm; three days after the inoculation
[8] = test system: pear (variety: Niju-seiki); details: concentration of spray liquid 500 ppm
[9] = test system: rice brown spot fungus; experiment: Test Example 10: seed treatment against brown spot of rice (seed disinfection ratio); details: concentration 1000 ppm, seed immersion, 25 days after the seeding
[10] = test system: rice seeds (variety: Asominori); experiment: Test Example 10: degree of phytotoxicity on rice after seed treatment (injury rating); details: concentration 1000 ppm
[11] = test system: Phytophthora infestans; format: in vivo
[12] = test system: tomato (variety: Sekai-ichi)
[13] = test system: rice seeds; experiment: Test Example 9: degree of phytotoxicity on rice after seed treatment (injury rating); details: concentration 1000 ppm
[14] = test system: Gibberella fujikuroi; experiment: Test Example 9: seed treatment against "Bakanae" disease of rice (seed disinfection ratio); details: concentration 1000 ppm, seed immersion at 15°C. for 24 hours, 32 days after the seeding
[15] = test system: Pellicularia sasakii; format: in vivo; details: Table 4, spray liquid 500 ppm, paddy rice sheath blight
[16] = test system: paddy rice; details: Table 4, spray liquid 500 ppm
[17] = Table 6, spray liquid 200 ppm, haricot
[18] = Table 3, spray liquid 500 ppm, paddy rice

CCOCCOC(=O)c1sc(C(=O)OCCOCC)c(OC(=O)NC)c1OC(=O)NC [Compound No. 161, 3,4-Di-methylcarbamoyloxy-2,5-di-2'-ethoxyethoxycarbonylthiophene]
Degree of phytotoxicity ([1]; in vivo): 0
Control value [2]: 100%

N#Cc1c(Cl)c(Cl)c(Cl)c(C#N)c1Cl [TPN, reference compound]
Control value (%) ([3]; concentration of spray liquid 500 ppm, five days after the inoculation): 100%
Degree of phytotoxicity ([4]; concentration of spray liquid 500 ppm): 0

CCOC(=O)c1sc(C(=O)c2ccccc2)c(OC(C)=O)c1OC(C)=O [Compound No. 249, 3,4-Diacetoxy-2-carbethoxy-5-benzoylthiophene]
Degree of phytotoxicity [5, 17]: 0
Control value [6]: 100%

CCOC(=O)c1sc(C#N)c(OC(C)=O)c1OC(C)=O [Compound No. 212, 3,4-Di-acetoxy-2-cyano-5-carbethoxythiophene]
Control value (%) [7]: 100%
Degree of phytotoxicity [8]: 0

CCOC(=O)Oc1c(C#N)sc(C(=O)OCC)c1OC(=O)OCC [Compound No. 216, 3,4-Di-(ethoxycarbonyloxy)-2-cyano-5-carbethoxythiophene]
Degree of phytotoxicity [5, 17]: 0
Control value [6]: 75%
Seed disinfection ratio (%) [9]: 100%
Degree of phytotoxicity [10]: 0

CCOC(=O)c1sc(C#N)c(OC(=O)NC)c1OC(=O)NC [compound 213]
Control value [3]: 100%
Control value (%) [7]: 92%
Degree of phytotoxicity ([4]; Table 7, spray liquid 500 ppm): 0
Degree of phytotoxicity [8]: 0
Seed disinfection ratio (%) [9]: 94%
Degree of phytotoxicity [10]: 0

CNC(=O)Oc1c(C#N)sc(C(=O)OC)c1OC(=O)NC [compound 207]
Control value [3]: 100%
Control value (%) [7]: 92%
Degree of phytotoxicity ([4]; Table 7, spray liquid 500 ppm): 0
Degree of phytotoxicity [8]: 0
Seed disinfection ratio (%) [9]: 96%
Degree of phytotoxicity [10]: 0

CCOCCOC(=O)c1sc(C(=O)OCCOCC)c(O)c1O [Compound No. 159, 3,4-Dihydroxy-2,5-di-2'-ethoxyethoxycarbonyl-thiophene]
Control value ([11]; in vivo): 99%
Degree of phytotoxicity ([1]; in vivo): 0
Degree of phytotoxicity ([12]; in vivo): 0
Control value [2]: 96%

CCOC(=O)c1sc(C(=O)OCC)c(OC(=O)NC)c1OC(=O)NC [Compound No. 50, 3,4-Bis(N-methylcarbamoyloxy)-2,5-dicarbethoxy-thiophene]
Control value [3]: 100%
Degree of phytotoxicity [1, 18]: 0
Degree of phytotoxicity ([4]; Table 7, spray liquid 500 ppm): 0
Control value [2]: 100%
Seed disinfection ratio (%) [9]: 100%
Degree of phytotoxicity [13]: 0
Degree of phytotoxicity [10]: 0
Seed disinfection ratio (%) [14]: 100%

COCCOC(=O)c1sc(C(=O)OCCOC)c(OC(=O)COC)c1OC(=O)COC [Compound No. 170, 3,4-Di-methoxymethylcarbonyloxy-2,5-di-2'-methoxyethoxycarbonylthiophene]
Control value [3]: 93%
Degree of phytotoxicity ([4]; Table 7, spray liquid 500 ppm): 0

OCCN1CN(CCO)CN(CCO)C1 [Triazine, reference compound]
Degree of phytotoxicity [1, 18]: 0
Control value [2]: 90%

CN(C)C(=S)SSC(=S)N(C)C [TMTD, reference compound]
Seed disinfection ratio (%) [9]: 51%
Degree of phytotoxicity [10]: 0

CCOC(=O)c1sc(C(=O)c2ccccc2)c(OC(=O)OC)c1OC(=O)OC [Compound No. 252, 3,4-Di(methoxycarbonyloxy)-2-carbethoxy-5-benzoylthiophene]
Degree of phytotoxicity [5, 17]: 0
Control value [6]: 90%

CCOC(=O)c1sc(C#N)c(O)c1O [Compound No. 210, 3,4-Dihydroxy-2-cyano-5-carbethoxythiophene]
Control value (%) [7]: 100%
Degree of phytotoxicity [8]: 0

CCCOC(=O)c1sc(C(=O)OCCC)c(OC(C)=O)c1OC(C)=O [Compound No. 3, 3,4-Diacetoxy-2,5-di-n-propoxycarbonylthiopene]
Control value ([11]; in vivo): 93%
Degree of phytotoxicity ([1]; in vivo): 0
Degree of phytotoxicity ([12]; in vivo): 0
Degree of phytotoxicity ([5]; in vivo): 0
Control value [2]: 100%
Control value [6]: 100%
Seed disinfection ratio (%) [9]: 100%
Degree of phytotoxicity [13]: 0
Degree of phytotoxicity [10]: 0
Seed disinfection ratio (%) [14]: 100%

CCOC(=O)c1sc(C(=O)c2ccccc2)c(O)c1O [Compound No. 247, 3,4-Dihydroxy-2-carbethoxy-5-benzoylthiophene]
Degree of phytotoxicity [5, 17]: 0
Control value [6]: 100%

COC(=O)c1sc(C(=O)c2ccccc2)c(O)c1O [Compound No. 246, 3,4-Dihydroxy-2-carbomethoxy-5-benzoylthiophene]
Degree of phytotoxicity [5, 17]: 0
Control value [6]: 100%

COC(=O)Oc1c(C(=O)OCc2ccccc2)sc(C(=O)OCc2ccccc2)c1OC(=O)OC [Compound No. 179, 3,4-Di-methoxycarbonyloxy-2,5-dibenzyloxycarbonylthiophene]
Control value [3]: 100%
Degree of phytotoxicity ([4]; Table 7, spray liquid 500 ppm): 0

CCOC(=O)c1sc(C(=O)OCC)c(OC(=O)OC)c1OC(=O)OC [Compound No. 22, 3,4-Dimethoxycarbonyloxy-2,5-dicarbethoxythiophene]
Control value ([11]; Table 5, spray liquid 500 ppm, tomato late blight, inoculation 3 days after spraying, observed 3 days after inoculation): 100%
Control value [3]: 100%
Degree of phytotoxicity [1, 18]: 0
Degree of phytotoxicity ([12]; Table 5, spray liquid 500 ppm, tomato): 0
Degree of phytotoxicity [5, 17]: 0
Degree of phytotoxicity ([4]; Table 7, spray liquid 500 ppm): 0
Control value [2]: 100%
Control value [6]: 95%
Seed disinfection ratio (%) [9]: 100%
Degree of phytotoxicity [13]: 0
Degree of phytotoxicity [10]: 0
Seed disinfection ratio (%) [14]: 97%

COC(=O)NC(=S)Nc1ccccc1NC(=S)NC(=O)OC [Thiophanate-methyl, reference compound]
Control value [6]: 70%

CCNC(=O)Oc1c(C#N)sc(C(=O)OC)c1OC(=O)NCC [Compound No. 208, 3,4-Di(N-ethylcarbamoyloxy)-2-cyano-5-methoxycarbonylthiophene]
Control value [3]: 100%
Control value (%) [7]: 78%
Degree of phytotoxicity ([4]; Table 7, spray liquid 500 ppm): 0
Degree of phytotoxicity [8]: 0
Seed disinfection ratio (%) [9]: 97%
Degree of phytotoxicity [10]: 0

CCOC(=O)c1sc(C#N)c(O)c1O [compound 211]
Control value [3]: 100%
Degree of phytotoxicity ([4]; Table 7, spray liquid 500 ppm): 0

CCOCCC(=O)Oc1c(C(=O)OCC)sc(C(=O)OCC)c1OC(=O)CCOCC [Compound No. 295, 3,4-Di(2'-ethoxyethylcarbonyloxy)-2,5-dicarbethoxy-thiophene]
Control value [15]: 94%
Degree of phytotoxicity [16]: 0

CCOC(=O)c1sc(C(=O)OCC)c(OC(=O)c2cccs2)c1OC(=O)c1cccs1 [Compound No. 229, 3,4-Di-(2'-thenoyloxy)-2,5-dicarbethoxythiophene]
Control value [3]: 100%
Degree of phytotoxicity ([4]; Table 7, spray liquid 500 ppm): 0

O=C1C2CC=CCC2C(=O)N1SC(Cl)(Cl)Cl (stereo not shown) [Captan, reference compound]
Control value (%) [7]: 90%
Degree of phytotoxicity [8]: 0

CCOC(=O)c1sc(C(=O)c2ccc(C)cc2)c(OC(=O)N(C)C)c1OC(=O)N(C)C [Compound No. 287, 3,4-Di(N,N-dimethylcarbamoyloxy)-2-carbethoxy-5-(p-methylbenzoyl)-thiophene]
Degree of phytotoxicity [5, 17]: 0
Control value [6]: 90%
